Reference: patent US10385005B2, “Compositions and methods for glucose transport inhibition” (OHIO UNIVERSITY, priority 2010, dated 2019)

Key:
MCF7 breast cancer cells = test: MTT cell death assay, MCF7; type: cell-based, human; conditions: concentration = IC50 for each compound
Description: (§1) Comparative assays using WZB-27, WZB-115, as well as two known anticancer drugs, cisplatin and taxol, were completed. In Table 4, the percent cell death in cancer cell lines as well as normal cell lines is shown. […] Comparing the breast cancer cell line MCF7, WZB-27 and WZB-115 kill somewhat fewer cells relative to taxol but more than cisplatin. Both WZB-27 and WZB-115 kill fewer of the normal breast cell line MCF12A than taxol or cisplatin. WZB-27 kills fewer of the normal breast cell line MCF12A than taxol or cisplatin while WZB-115 kills no more normal cells than either cisplatin or taxol.
(§2) MTT assays are performed by the following well-established method. In a 96 well tissue culture plate 10,000 cells are plated in each well. The cells are incubated in presence or absence of the compounds for 18 h. 3-(4,5-Dimethylthiazol-2-yl)-2,5-diphenyltetrazolium bromide (MTT) is dissolved in PBS (10 mg/ml) and filter sterilized. Three hours before the end of the incubation 20 μL of MTT solution is added to each well containing cells in a 96-well plate. The plate is incubated in an incubator at 37° C. for 3 h. Media is aspirated gently and 200 μL of DMSO is added to each well to dissolve formazan crystals. The absorbance is measured at 550 nm for cell viability.

[1] = system: MCF12A normal breast cells; test: MTT cell death assay, MCF12A; type: cell-based, human; conditions: concentration = IC50 for each compound
Description: as §1, §2

H1299 lung cancer cells = test: MTT cell growth / viability assay, H1299; type: cell-based, human; conditions: for % cell death: concentration = IC50 for each compound
Description: (§3) Briefly, H1299 cancer cells were treated with or without the compounds (30 μM) in triplicates for 10 min before the glucose uptake assay. Cellular glucose uptake was measured by incubating cells in the glucose-free KRP buffer with […] [^3H]2-deoxyglucose (specific activity, 40 Ci/mmol) for 30 min in the absence or presence of compounds. After the cells were washed with ice-cold PBS and lysed by 0.2 N NaOH, the cell lysates were transferred to scintillation counting vials and the radioactivity in the cell lysates was quantified by liquid scintillation counting. Cell growth measurements were performed using an MTT assay in hexads in a 96-well tissue culture plate with 5,000 cells plated in each well. The cells were incubated in presence or absence of the compounds (30 μM) for 48 h. After incubation, cell viabilities were assayed using a 96-well SPECTRAMAX™ absorbance/fluorescence plate reader (Molecular Devices).
as §2

NL20 normal lung cells = test: MTT cell death assay, NL20; type: cell-based, human; conditions: concentration = IC50 for each compound
Description: as §1, §2

[2] = system: insulin-like glucose uptake stimulatory activity; test: Insulin-like activity of PGG analogs; type: cell-based
H1299 cells = test: Standard glucose uptake assay, H1299; type: cell-based, human; conditions: for Glucose transport inhibition (%) / glucose uptake inhibition compared with fasentin: H1299; for glucose uptake inhibition compared with fasentin: all compounds 30 μM, FIG. 22A
Description: as §3
Cancer cells are treated with or without the compounds for 10 min before the glucose uptake assay. Cellular glucose uptake will be measured by incubating cells in glucose-free RPMI 1640 with […] [^3H]2-deoxyglucose (specific activity, 40 Ci/mmol) for 30 min in the absence and presence of compounds. After the cells are washed with ice-cold PBS and lysed, the cell lysates will be transferred to scintillation counting vials and the radioactivity in the cell lysates is quantified by liquid scintillation counting.

RKO cells = test: Glucose uptake assay (3H 2-DG), RKO; type: cell-based, human; conditions: 30 μM
Description: (§4) Cells were treated with α-PGG for 20 minutes before ^3H-labeled 2-DG. Thirty minutes after the addition of 2-DG, cells were harvested, lysed, and counted for their respective glucose uptake. Samples: 1. Mock; 2. […] WZB-25 (30 μM); 5. WZB-26 (30 μM); and 6. WZB-27 (30 μM).
(§5) Compounds 1a and 2a were initially prepared as potential anti-diabetic analogs of α-PGG (FIG. 1). Given the tight SAR of this class of compounds, it was hypothesized that a more rigid scaffold (i.e., a benzene ring) might enhance the activity.

MCF-7 cells = test: Glucose uptake assay (3H 2-DG), MCF-7; type: cell-based, human; conditions: 30 μM
Description: as §4, §5

HeLa cells [3] = test: Glucose uptake assay (3H 2-DG), HeLa; type: cell-based, human
Description: Cells were treated with α-PGG for 20 minutes before ^3H-labeled 2-DG. […] Samples: 1. Mock; 2. […] WZB-25 (30 μM); 5. WZB-26 (30 μM); and 6. WZB-27 (30 μM). Compounds 1a and 2a were initially prepared as potential anti-diabetic analogs of α-PGG (FIG. 1). Given the tight SAR of this class of compounds, it was hypothesized that a more rigid scaffold (i.e., a benzene ring) might enhance the activity. […] Error bars in FIG. 8 represent standard deviations of the measurements. Samples were done in triplicates and the experiment was repeated three times.

basal glucose transport = conditions: known glucose transport inhibitors, positive controls; cited from earlier work
[4] = system: PARP protein (Caspase 3 substrate) in H1299 lung cancer cells; test: PARP cleavage assay, H1299; type: cell-based, human
Description: A. Cell viability assay in RKO colon cancer cells with α-PGG, W25 (WZB-25), W27 (WZB-27), and C7 treatments. RKO cells contain high levels of p53 while RKO E6 cells contain much lower levels of p53. B. Apoptosis assay in H1299 lung cancer cells using cleaved PARP protein (89 kDa) as an indicator for Caspase 3 since PARP is a substrate of activated Caspase 3.
To determine if anti-cancer compounds W25 and W27 kill cancer cells using a p53 dependent or a p53-independent pathway, a cell killing assay was performed in RKO and RKO E6 cell lines. The difference between the two cell lines is that RKO cells contain much higher levels of p53 than RKO E6 cells.
Cells were harvested from plates, re-suspended with 3× sample buffer, and boiled for 5 min. Approximately […] of protein extract was loaded after protein concentration measurement by Pierce bicinchoninic acid (BCA) protein assay (Pierce Biotechnology, Inc. Rockford, Ill.). Samples were run on a 10% Bio-Tris NuPAGE gel (Invitrogen) and transferred to a polyvinylidene difluoride membrane (PVDF, Biorad). The membrane was incubated with antibodies specific to p53, or PARP, or β-actin. Specific protein bands were visualized after the development of film. Antibodies for p53 were purchased from Santa Cruz Biotechnology, Inc. (Santa Cruz, Calif., USA). […]

[5] = system: RKO and RKO E6 cell lines; test: Cell killing assay in RKO and RKO E6 cells; type: cell-based, human; conditions: high vs low p53
Description: A. Cell viability assay in RKO colon cancer cells. RKO cells contain high levels of p53 while RKO E6 cells contain much lower levels of p53. […] RKO cells have higher level of p53 while RKO-E6 is p53 deficient. ***p<0.001, **p<0.01. C.

[6] = system: three different cancer cell lines; conditions: all compounds 60 μM, FIG. 22B
Description: Known basal glucose compound fasentin and compound inhibitors generated in house were compared side by side in both glucose uptake assay and cell viability (MTT) assay. Glucose uptake or cell viability of mock treated samples was arbitrarily assigned a value of 100%. A. Glucose uptake assay in H1299 cancer cells. Concentration for all compounds was 30 μM. B. Cell viability assays in three different cancer cell lines. Concentration for all compounds was 60 μM.
Fasentin is a published inhibitor of basal glucose transport and known GLUT1 inhibitor.

HeLa cells [7] = test: Antibody-coupled flow cytometry study; type: cell-based, human; conditions: FIG. 5C
Description: (§6) A. α-PGG treatment led to 70-80% reduction of cell viability as measured by a cell viability (MTT) assay. […] C. α-PGG treatment of HeLa cells led to a decrease in G1 phase cells but a significant increase (˜3-fold) in apoptotic cells as determined by an antibody-coupled flow cytometry study.

HeLa cells [8] = test: Apoptosis (ELISA) assay; type: cell-based, human; conditions: FIG. 5B
[9] = system: RKO (colon), HeLa (cervical), and MCF-7 (breast) human cancer cells; test: Cell viability (MTT) assay of α-PGG treated cancer cells; type: cell-based; conditions: FIG. 5A
Description: as §6

N.N.[Cl][Pt][Cl] [Cisplatin, cisplatin]
% cell death (MCF7 breast cancer cells): 27.0 ± 1.9%
% cell death [1]: 69.6 ± 2.9%
% cell death (H1299 lung cancer cells): 26.4 ± 3.8%
% cell death (NL20 normal lung cells): 58.4 ± 7.0%

COc1cccc(OC(=O)c2cc(O)c(O)c(O)c2)c1OC(=O)c1cc(O)c(O)c(O)c1 [Compound 1a]
Cell growth inhibition (%) (H1299 lung cancer cells; Table 2, 30 μM, 48 h): 36.0±6.1%
insulin-like activity [2]: without any insulin-like activity
Glucose transport inhibition (%) (H1299 cells; Table 2, 30 μM, untreated cells 0% inhibition): 58.4±6.3%
% inhibition of basal glucose transport (H1299 cells; Table 3, 30 μM in H1299 cells, listed as WZB-26): 84.0 ± 1.9%
Glucose transport inhibitory activity (%) (RKO cells): 57.2 ± 4.4%
Glucose transport inhibitory activity (%) (MCF-7 cells): 33.0 ± 0.5%
Glucose transport inhibitory activity (%) (HeLa cells [3]; Hela, 30 μM): 46.3 ± 3.3%

CC(=O)CC(=O)Nc1ccc(Cl)c(C(F)(F)F)c1 [Fasentin, fasentin]
IC50 (basal glucose transport): ≥ 50 µM

CC(=O)O[C@H]1C(=O)[C@@]2(C)[C@H]([C@H](OC(=O)c3ccccc3)[C@]3(O)C[C@H](OC(=O)[C@H](O)[C@@H](NC(=O)c4ccccc4)c4ccccc4)C(C)=C1C3(C)C)[C@]1(OC(C)=O)CO[C@@H]1C[C@@H]2O [Taxol, taxol]
% cell death (MCF7 breast cancer cells): 61.4 ± 7.1%
% cell death [1]: 73.7 ± 5.6%
% cell death (H1299 lung cancer cells): 45.6 ± 4.9%
% cell death (NL20 normal lung cells): 53.8 ± 4.2%

O=C(O[C@@H]1[C@@H](OC(=O)c2cc(O)c(O)c(O)c2)[C@@H]2OC[C@@H](O2)[C@H]1OC(=O)c1cc(O)c(O)c(O)c1)c1cc(O)c(O)c(O)c1 [WZB-25]
PARP cleavage [4]: cleaved into a 89 kDa protein
cell killing / viability RKO vs RKO E6 [5]: killed about the same amounts of RKO cells and RKO E6 cells
dose dependence of basal glucose transport inhibition (HeLa cells [3]; HeLa, FIG. 8): dose-dependent manner

Oc1cccc(COc2cccc(OCc3cccc(O)c3)c2OCc2cccc(O)c2)c1 [WZB-131]
Cell growth inhibition (%) (H1299 lung cancer cells; Table 12): 12.9 ± 2.6%
glucose uptake inhibition compared with fasentin (H1299 cells): stronger inhibition than fasentin
Glucose transport inhibition (%) (H1299 cells; Table 12): 95.0 ± 1.6%
cancer cell death compared with fasentin [6]: more cancer cell death than fasentin

Oc1cccc(COc2ccc(Cl)cc2OCc2cccc(O)c2)c1 [WZB-133]
Cell growth inhibition (%) (H1299 lung cancer cells; Table 12): 14.3 ± 2.7%
glucose uptake inhibition compared with fasentin (H1299 cells): stronger inhibition than fasentin
Glucose transport inhibition (%) (H1299 cells; Table 12): 91.2 ± 0.8%
cancer cell death compared with fasentin [6]: more cancer cell death than fasentin

O=c1cc(-c2ccc(O)cc2)oc2cc(O)cc(O)c12 [apigenin]
IC50 (basal glucose transport): ≥ 60 µM

O=C(OC[C@H]1O[C@@H](OC(=O)c2cc(O)c(O)c(O)c2)[C@H](OC(=O)c2cc(O)c(O)c(O)c2)[C@@H](OC(=O)c2cc(O)c(O)c(O)c2)[C@@H]1OC(=O)c1cc(O)c(O)c(O)c1)c1cc(O)c(O)c(O)c1 [α-PGG, penta-galloyl-glucose]
increase in apoptotic cells (HeLa cells [7]): ~3 fold
increase in apoptosis (HeLa cells [8]): more than 2 fold
concentration at which glucose transport inhibition starts (HeLa cells [3]; HeLa, 20 min preincubation): 5 µM
reduction of cell viability [9]: 70-80%
